The source of these data is patent US20250186437A1, “CARBOLINE COMPOUNDS AND USE THEREOF” (PTC Therapeutics, Inc., priority 2021, published 2025).

Structures are written as SMILES. Structures can show the parent of a compound that is named as a salt.

For experiment [1], the system named is MOLM-13 cells. Description: MOLM-13 Uridine Rescue Assay. Type of experiment: cell-based. Particulars: Homo sapiens; MOLM-13 cell proliferation with 100 μM Uridine added, 72 Hours of culture. The method, then: The following assay was conducted to measure proliferation of MOLM-13 cells in the presence of each compound studied. This assay was included as an indicator of DHODH inhibition, as growth of MOLM-13 cells is known to depend on synthesis of pyrimidines using the de novo pathway, which can be blocked by inhibition of DHODH. • 1. MOLM-13 cells were cultured in RPMI 1640 medium+10% Fetal Bovine Serum (FBS). Only low passage cells (<20) were used for the compound tests • 2. On day 1, Log-phase growing Molm-13 Cells were counted and diluted to 10^5 cells/mL in RPMI 1640 medium+10% FBS • 3. 100 μL of diluted MOLM-13 cells in 96 well white plates were seeded, for a final density of 10^4 cells/well. • 4. 0.5 μL of pre-diluted 200× compounds or DMSO control was added to each well. The final DMSO concentration was 0.5%. • 5. After 72 Hours of culture at 37° C., 5% CO2, the plates were taken out and cooled to RT, then 50 μL CellTiter-Glo® (Promega) was added, and the composition was mixed at RT for 10 minutes. • 6. The plates were then read by ViewLux (Speed-fast, Gain-High, Bining-1X, 5 seconds).
Several compounds were also tested in a Uridine rescue assay. In the Uridine rescue assay, using the procedure in Example 1 above, an additional plate of MOLM-13 cell cultures was prepared, to which 100 μM of Uridine was added in step 3 of the process.

For experiment [2], the system named is MOLM-13 cells. Description: MOLM-13 Cell Proliferation Assay (indicator of DHODH inhibition). Type of experiment: cell-based. Particulars: Homo sapiens, 72 Hours of culture, CellTiter-Glo, no uridine. The essentials: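 Proliferation readout via CellTiter-Glo luminescence after 72 h compound treatment (37 °C, 5% CO2, 0.5% DMSO) of MOLM-13 cells seeded at 10^4 per well in RPMI 1640/10% FBS, used as a DHODH-inhibition indicator since these cells rely on de novo pyrimidine synthesis.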
(ATP-based viability assays read luminescence as a measure of living cells.)

In general, IC50 refers to the concentration that gives 50% inhibition. High values mean a need for much substance, low ones inhibition by little substance. For `N#Cc1ccc(C2c3[nH]c4ccc(Cl)cc4c3CCN2c2nccc(C(F)(F)F)n2)c(F)c1F` (stereo not shown) [Compound 278, 4-{6-chloro-2-[4-(trifluoromethyl)pyrimidin-2-yl]-2,3,4,9-tetrahydro-1H-pyrido[3,4-b]indol-1-yl}-2,3-difluorobenzonitrile], the values for the IC50 with MOLM-13 cells [1] and with MOLM-13 cells [2] were 4810 nM and 1.7 nM, respectively.
On the same counts, the results for `Cc1ccc(C2c3[nH]c4cc(N)c(Cl)cc4c3CCN2c2nccc(C(F)(F)F)n2)c(F)c1F` (stereo not shown) [Compound 282, 6-chloro-1-(2,3-difluoro-4-methylphenyl)-2-[4-(trifluoromethyl)pyrimidin-2-yl]-2,3,4,9-tetrahydro-1H-pyrido[3,4-b]indol-7-amine] are 11500 nM and 23.2 nM.
The like results for `Cc1nc(C)nc(N2CCc3c([nH]c4ccc(Cl)cc34)C2c2ccc(N3CCOCC3)c(F)c2F)n1` (stereo not shown) [Compound 284, 6-chloro-1-[2,3-difluoro-4-(morpholin-4-yl)phenyl]-2-(4,6-dimethyl-1,3,5-triazin-2-yl)-2,3,4,9-tetrahydro-1H-pyrido[3,4-b]indole] were, in that order, 12200 nM and 12.9 nM.
On to `FC(F)(F)c1ccnc(N2CCc3c([nH]c4ccc(-n5nccn5)cc34)C2c2cnc(N3CCOCC3)nc2)n1` (stereo not shown) [Compound 288, 1-[2-(morpholin-4-yl)pyrimidin-5-yl]-6-(2H-1,2,3-triazol-2-yl)-2-[4-(trifluoromethyl)pyrimidin-2-yl]-2,3,4,9-tetrahydro-1H-pyrido[3,4-b]indole], for which the IC50 with MOLM-13 cells [1] came to 11400 nM; in the experiment with MOLM-13 cells [2] it was 4.6 nM.
The like results for `Cc1nc(C)nc(N2CCc3c([nH]c4ccc(Cl)cc34)C2c2cnc(N3CCOCC3)nc2)n1` (stereo not shown) [Compound 293, 6-chloro-2-(4,6-dimethyl-1,3,5-triazin-2-yl)-1-[2-(morpholin-4-yl)pyrimidin-5-yl]-2,3,4,9-tetrahydro-1H-pyrido[3,4-b]indole] were, in that order, 10600 nM and 12.8 nM.
For `Cc1ncnc(N2CCc3c([nH]c4ccc(Cl)cc34)C2c2cnc(N3CCOCC3)nc2)n1` (stereo not shown) [Compound 294, 6-chloro-2-(4-methyl-1,3,5-triazin-2-yl)-1-[2-(morpholin-4-yl)pyrimidin-5-yl]-2,3,4,9-tetrahydro-1H-pyrido[3,4-b]indole], the IC50 stood at 12400 nM with MOLM-13 cells [1] and 20.8 nM in the experiment on MOLM-13 cells [2].
Turning to `Cc1ccc(C2c3[nH]c4ccc([N+](=O)[O-])cc4c3CCN2c2nccc(C(F)(F)F)n2)c(F)c1F` (stereo not shown) [Compound 305, 1-(2,3-difluoro-4-methylphenyl)-6-nitro-2-[4-(trifluoromethyl)pyrimidin-2-yl]-2,3,4,9-tetrahydro-1H-pyrido[3,4-b]indole], the IC50 in the experiment with MOLM-13 cells [1] stood at 11600 nM; in the experiment with MOLM-13 cells [2], 1 nM.
The like results for `Nc1cc(Cl)cc2c3c([nH]c12)C(c1cnc(N2CCOCC2)nc1)N(c1nccc(C(F)(F)F)n1)CC3` (stereo not shown) [Compound 310, 6-chloro-1-[2-(morpholin-4-yl)pyrimidin-5-yl]-2-[4-(trifluoromethyl)pyrimidin-2-yl]-2,3,4,9-tetrahydro-1H-pyrido[3,4-b]indol-8-amine] were, in that order, 14400 nM and 1.1 nM.
As for `Nc1cc2[nH]c3c(c2cc1Cl)CCN(c1nccc(C(F)(F)F)n1)C3c1cnc(N2CCOCC2)nc1` (stereo not shown) [Compound 311, 6-chloro-1-[2-(morpholin-4-yl)pyrimidin-5-yl]-2-[4-(trifluoromethyl)pyrimidin-2-yl]-2,3,4,9-tetrahydro-1H-pyrido[3,4-b]indol-7-amine], the IC50 was 8470 nM in the experiment with MOLM-13 cells [1] and 2.1 nM with MOLM-13 cells [2].
The like results for `FC(F)(F)c1ccnc(N2CCc3c([nH]c4ccc(-n5nccn5)cc34)C2c2ccc(N3CCOCC3)nc2)n1` (stereo not shown) [Compound 316, 1-[6-(morpholin-4-yl)pyridin-3-yl]-6-(2H-1,2,3-triazol-2-yl)-2-[4-(trifluoromethyl)pyrimidin-2-yl]-2,3,4,9-tetrahydro-1H-pyrido[3,4-b]indole] were, in that order, 10700 nM and 3.8 nM.
On to `Cc1nc(C)nc(N2CCc3c([nH]c4cc(N)c(Cl)cc34)C2c2cnc(N3CCOCC3)nc2)n1` (stereo not shown) [Compound 320, 6-chloro-2-(4,6-dimethyl-1,3,5-triazin-2-yl)-1-[2-(morpholin-4-yl)pyrimidin-5-yl]-2,3,4,9-tetrahydro-1H-pyrido[3,4-b]indol-7-amine], for which the IC50 was found to be 9810 nM in the experiment on MOLM-13 cells [1] and 11.7 nM in the experiment with MOLM-13 cells [2].
As for `Cc1nc(C)nc(N2CCc3c([nH]c4ccc(Cl)cc34)C2c2ccc(N3CCOCC3)nc2)n1` (stereo not shown) [Compound 324, 6-chloro-2-(4,6-dimethyl-1,3,5-triazin-2-yl)-1-[6-(morpholin-4-yl)pyridin-3-yl]-2,3,4,9-tetrahydro-1H-pyrido[3,4-b]indole], the IC50 with MOLM-13 cells [1] stood at 9720 nM; in the experiment on MOLM-13 cells [2], 13.4 nM.
The like results for `Nc1c(Cl)ccc2[nH]c3c(c12)CCN(c1nccc(C(F)(F)F)n1)C3c1cnc(N2CCOCC2)nc1` (stereo not shown) [Compound 328, 6-chloro-1-[2-(morpholin-4-yl)pyrimidin-5-yl]-2-[4-(trifluoromethyl)pyrimidin-2-yl]-2,3,4,9-tetrahydro-1H-pyrido[3,4-b]indol-5-amine] were, in that order, 10500 nM and 2.9 nM.
On the same counts, the results for `Cc1ccc(C2c3[nH]c4ccc(N(C)C)cc4c3CCN2c2nccc(C(F)(F)F)n2)c(F)c1F` (stereo not shown) [Compound 330, 1-(2,3-difluoro-4-methylphenyl)-N,N-dimethyl-2-[4-(trifluoromethyl)pyrimidin-2-yl]-2,3,4,9-tetrahydro-1H-pyrido[3,4-b]indol-6-amine] are 11500 nM and 11.3 nM.
The like results for `Cc1ccc(C2c3[nH]c4ccc(Cl)cc4c3CCN2c2nc(C(F)(F)F)cc(C(F)(F)F)n2)c(F)c1F` (stereo not shown) [Compound 340, 2-[4,6-bis(trifluoromethyl)pyrimidin-2-yl]-6-chloro-1-(2,3-difluoro-4-methylphenyl)-2,3,4,9-tetrahydro-1H-pyrido[3,4-b]indole] were, in that order, 15200 nM and 1 nM.
For `Cc1ccc(C2c3[nH]c4ccc(Cl)cc4c3CCN2c2nccc(C(F)(F)F)n2)cc1` (stereo not shown) [Compound 343, 6-chloro-1-(4-methylphenyl)-2-[4-(trifluoromethyl)pyrimidin-2-yl]-2,3,4,9-tetrahydro-1H-pyrido[3,4-b]indole], the IC50 in the experiment on MOLM-13 cells [1] is 19800 nM; with MOLM-13 cells [2], 3.3 nM.
The like results for `Cc1nc(C)nc(N2CCc3c([nH]c4ccc(Cl)cc34)[C@@H]2c2ccc(C)c(F)c2F)n1` [Compound 347, (1S)-6-chloro-1-(2,3-difluoro-4-methylphenyl)-2-(4,6-dimethyl-1,3,5-triazin-2-yl)-2,3,4,9-tetrahydro-1H-pyrido[3,4-b]indole] were, in that order, 2770 nM and 1.1 nM.
As to `Cc1nc(C)nc(N2CCc3c([nH]c4c(O)cc(Cl)cc34)C2c2ccc(C)c(F)c2F)n1` (stereo not shown) [Compound 348, 6-chloro-1-(2,3-difluoro-4-methylphenyl)-2-(4,6-dimethyl-1,3,5-triazin-2-yl)-2,3,4,9-tetrahydro-1H-pyrido[3,4-b]indol-8-ol], the values for the IC50 in the experiment on MOLM-13 cells [1] and in the experiment with MOLM-13 cells [2] were 2000 nM and 1.2 nM, respectively.
In the case of `Cc1cc(C)nc(N2CCc3c([nH]c4ccc(Cl)cc34)C2c2ccc(N3CCOCC3)nc2)n1` (stereo not shown) [Compound 350, 6-chloro-2-(4,6-dimethylpyrimidin-2-yl)-1-[6-(morpholin-4-yl)pyridin-3-yl]-2,3,4,9-tetrahydro-1H-pyrido[3,4-b]indole], the IC50 in the experiment with MOLM-13 cells [1] was determined as 14900 nM; in the experiment with MOLM-13 cells [2], 4.8 nM.
`Cc1ccnc(N2CCc3c([nH]c4ccc(Cl)cc34)C2c2ccc(N3CCOCC3)nc2)n1` (stereo not shown) [Compound 352, 6-chloro-2-(4-methylpyrimidin-2-yl)-1-[6-(morpholin-4-yl)pyridin-3-yl]-2,3,4,9-tetrahydro-1H-pyrido[3,4-b]indole]: the IC50 with MOLM-13 cells [1] came out at 6410 nM; with MOLM-13 cells [2], 8.9 nM.
Regarding `Cc1ccc(C2c3[nH]c4ccc(Cl)cc4c3CCN2c2nc(C)nc(C)n2)cc1` (stereo not shown) [Compound 355, 6-chloro-2-(4,6-dimethyl-1,3,5-triazin-2-yl)-1-(4-methylphenyl)-2,3,4,9-tetrahydro-1H-pyrido[3,4-b]indole], the IC50 with MOLM-13 cells [1] was found to be 5660 nM; with MOLM-13 cells [2], 11.7 nM.
The like results for `N#Cc1ccnc(N2CCc3c([nH]c4ccc(Cl)cc34)C2c2ccc(N3CCOCC3)nc2)n1` (stereo not shown) [Compound 356, 2-{6-chloro-1-[6-(morpholin-4-yl)pyridin-3-yl]-1,3,4,9-tetrahydro-2H-pyrido[3,4-b]indol-2-yl}pyrimidine-4-carbonitrile] were, in that order, 6960 nM and 4.6 nM.
`FC(F)(F)c1cc(C(F)(F)F)nc(N2CCc3c([nH]c4ccc(Cl)cc34)C2c2ccc(N3CCOCC3)nc2)n1` (stereo not shown) [Compound 357, 2-[4,6-bis(trifluoromethyl)pyrimidin-2-yl]-6-chloro-1-[6-(morpholin-4-yl)pyridin-3-yl]-2,3,4,9-tetrahydro-1H-pyrido[3,4-b]indole formate (1:1)]: the IC50 turned out to be 9300 nM with MOLM-13 cells [1] and 0.6 nM in the experiment on MOLM-13 cells [2].
